Reference: patent US20120040951A1, “HETEROARYL COMPOUNDS USEFUL AS RAF KINASE INHIBITORS” (priority 2008, published 2012)
pEC50, pIC50: −log10 of the molar value.

Columns and labels:
V599E Raf = V599E Raf (Homo sapiens, UniProt P15056, V600E); assay: Biochemical FRET assay, mutant Raf (phosphorylation of MEK); conditions: 0.125 nM V599E Raf, 100 nM biotin-MEK, 25 μM ATP, read-out: Raf (mut) inhibition
Experimental: (1) Biochemical FRET Assay […]
Inhibitors were diluted 4-fold in 100% DMSO and added to a final concentration of 10 μM to 40 μM to a solution containing 100 nM biotin-MEK, 0.125 nM V599E Raf in 50 mM HEPES, pH 7.4, 60 mM NaCl, 3 mM MgCl2, 2 mM DTT, 0.25 mM MnCl2, 0.01% BSA, and 0.01% Tween-20 and incubated for 20 minutes at room temperature. The kinase reaction was started by the addition of 25 μM ATP to a final volume of 45 μl and allowed to progress for 60 minutes. The reaction was stopped with 15 mM EDTA and 20 nM Streptavidin-APC, 2.5 nM Polyclonal anti p-MEK1/2 (Ser217/221), 2.5 nM Eu-labeled anti-rabbit IgG were added in Lance detection buffer and 5% Superblock in PBS for a final volume of 100 μl. The detection reaction was incubated for 90 minutes at room temperature and then read on an Analyst plate reader using standard TR-FRET (time resolved fluorescence resonance energy transfer) settings for Eu and APC.
Compounds having an activity designated as “A” provided an IC50≦100 nM; compounds having an activity designated as “B” provided an IC50 of 100-1000 nM; and compounds having an activity designated as “C” provided an IC50 of 1000-10,000 nM.

[1] = tested on: phospho-ERK in melanoma derived WM-266-4 cells; assay: Mechanistic cellular assay for Raf kinase activity (phospho-ERK, Bio-Plex); type: cell-based; conditions: Homo sapiens, treated 1-2 hr at 37° C., serum free medium, read-out: pERK EC50
Summary of the method: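 WM-266-4 melanoma cells (wild-type/V600D BRaf) grown overnight in 10% FBS RPMI, then treated 1–2 h at 37 °C in serum-free RPMI with eight 3-fold dilutions of compound (from 5 mM DMSO stock, 1000× dilution). Lysate phospho-ERK1,2 quantified by Bio-Plex bead immunoassay.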

V599E Raf, sequence (P15056 whole entry V600E): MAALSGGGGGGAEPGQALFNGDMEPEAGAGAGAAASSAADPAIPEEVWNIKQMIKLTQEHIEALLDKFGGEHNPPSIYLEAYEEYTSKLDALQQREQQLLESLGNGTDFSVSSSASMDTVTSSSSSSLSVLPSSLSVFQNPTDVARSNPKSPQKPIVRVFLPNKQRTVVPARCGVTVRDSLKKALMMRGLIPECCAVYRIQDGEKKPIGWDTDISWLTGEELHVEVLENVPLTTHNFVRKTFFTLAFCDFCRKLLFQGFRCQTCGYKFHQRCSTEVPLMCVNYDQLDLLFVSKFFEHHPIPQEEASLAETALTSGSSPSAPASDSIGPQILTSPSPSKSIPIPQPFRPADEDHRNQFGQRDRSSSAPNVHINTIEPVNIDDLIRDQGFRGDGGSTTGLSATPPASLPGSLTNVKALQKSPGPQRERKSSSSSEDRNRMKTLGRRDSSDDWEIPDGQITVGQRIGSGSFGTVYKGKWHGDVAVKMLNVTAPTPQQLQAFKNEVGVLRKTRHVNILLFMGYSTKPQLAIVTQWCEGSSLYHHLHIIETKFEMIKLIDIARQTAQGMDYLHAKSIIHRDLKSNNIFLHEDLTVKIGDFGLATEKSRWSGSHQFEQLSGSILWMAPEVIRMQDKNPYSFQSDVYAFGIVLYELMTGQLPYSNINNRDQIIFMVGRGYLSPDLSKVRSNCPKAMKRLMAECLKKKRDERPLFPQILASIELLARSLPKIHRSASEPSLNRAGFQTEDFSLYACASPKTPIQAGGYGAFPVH

Row | pIC50 (V599E Raf) | pEC50 [1] | Compound
1 | 6.00 to 7.00 | 5.00 to 6.00 | C[C@@H](NC(=O)c1ccc2[nH]c(C(F)(F)F)nc2c1)c1ncc(C(=O)Nc2cc(C(F)(F)F)c(Cl)cn2)s1 [Example 62]
2 | ≥ 7.00 | ≥ 7.00 | C[C@@H](NC(=O)c1cc2c(cn1)ncn2C)c1cnc(Nc2ccc(C(F)(F)F)cc2)s1 [Example 4]
3 | ≥ 7.00 | 6.00 to 7.00 | CC(NC(=O)c1cc2c(cn1)ncn2C1CN(C(C)C)C1)c1cnc(Nc2ccc(C(F)(F)F)cc2)cn1 (stereo not shown) [Example 181]
4 | ≥ 7.00 | 5.00 to 6.00 | Cc1scnc1C(=O)N[C@H](C)c1ncc(C(=O)Nc2cc(C(F)(F)F)c(Cl)cn2)s1 [Example 96]
5 | 6.00 to 7.00 | 6.00 to 7.00 | C[C@@H](NC(=O)c1cnn(C)c1CN1CCCC1)c1ncc(C(=O)Nc2cc(C(F)(F)F)c(Cl)cn2)s1 [Example 132]
6 | ≥ 7.00 | ≥ 7.00 | Cc1ccc(NC(=O)c2cc([C@@H](C)NC(=O)c3cnn4ccccc34)no2)cc1C(F)(F)F [Example 218]
7 | ≥ 7.00 | 5.00 to 6.00 | C[C@@H](NC(=O)c1cnc(N2CCN(C)CC2)s1)c1ncc(C(=O)Nc2cc(C(F)(F)F)c(Cl)cn2)s1 [Example 106]
8 | ≥ 7.00 | 5.00 to 6.00 | CC(NC(=O)c1cnn2cccnc12)c1cnc(Nc2ccc(C(F)(F)F)cc2)s1 (stereo not shown) [Example 225]
9 | 6.00 to 7.00 | 5.00 to 6.00 | O=C(Nc1ccc(Cl)c(C(F)(F)F)c1)c1ccc(CNC(=O)c2cnn3ccccc23)cc1 [Example 231]
10 | 6.00 to 7.00 | 6.00 to 7.00 | C[C@@H](NC(=O)c1cnn(C)c1CNC1CC1)c1ncc(C(=O)Nc2cc(C(F)(F)F)c(Cl)cn2)s1 [Example 133]
11 | 6.00 to 7.00 | 5.00 to 6.00 | Cc1cn(-c2cccc(C(=O)N[C@H](C)c3ncc(C(=O)Nc4cc(C(F)(F)F)c(Cl)cn4)s3)n2)cn1 [Example 334]
12 | 6.00 to 7.00 | 5.00 to 6.00 | C[C@@H](NC(=O)c1ccc2sccc2c1)c1ncc(C(=O)Nc2cc(C(F)(F)F)c(Cl)cn2)s1 [Example 67]
13 | ≥ 7.00 | 6.00 to 7.00 | CC(NC(=O)c1cc2c(cn1)ncn2C)c1cnc(Nc2ccc(C(F)(F)F)cn2)cn1 (stereo not shown) [Example 262]
14 | 5.00 to 6.00 | 5.00 to 6.00 | CNCc1c(C(=O)N[C@H](C)c2ncc(C(=O)Nc3cc(C(F)(F)F)c(Cl)cn3)s2)cnn1C [Example 129]
15 | 6.00 to 7.00 | 5.00 to 6.00 | CC(=O)N1CCn2c(C(=O)N[C@H](C)c3ncc(C(=O)Nc4cc(C(F)(F)F)c(Cl)cn4)s3)cnc2C1 [Example 316]
16 | ≥ 7.00 | ≥ 7.00 | C[C@@H](NC(=O)c1cc2c(cn1)ncn2C1CCC1)c1cnc(Nc2ccc(C(F)(F)F)cc2)s1 [Example 176]
17 | ≥ 7.00 | ≥ 7.00 | COc1cc(C(F)(F)F)ccc1Nc1ncc(C(C)NC(=O)c2cc3c(cn2)ncn3C)s1 (stereo not shown) [Example 244]
18 | ≥ 7.00 | 6.00 to 7.00 | C[C@@H](NC(=O)c1cnc2n1CCCN2C)c1ncc(C(=O)Nc2cc(C(F)(F)F)c(Cl)cn2)s1 [Example 167]
19 | ≥ 7.00 | 5.00 to 6.00 | CC(NC(=O)c1cc2c(cn1)ncn2C(CO)CO)c1cnc(Nc2ccc(C(F)(F)F)cc2)s1 (stereo not shown) [Example 32]
20 | ≥ 7.00 | 5.00 to 6.00 | Cc1nc2cc(C(=O)N[C@H](C)c3ncc(C(=O)Nc4cc(C(F)(F)F)c(Cl)cn4)s3)ccc2n1C [Example 68]
21 | 6.00 to 7.00 | 5.00 to 6.00 | C[C@@H](NC(=O)c1nc(NC(=O)OC(C)(C)C)cn1C)c1ncc(C(=O)Nc2cc(C(F)(F)F)c(Cl)cn2)s1 [Example 138]
22 | ≥ 7.00 | 5.00 to 6.00 | CC(NC(=O)c1cc2c(cn1)ncn2C)c1cnc(Nc2cc(C(N)=O)cc(C(C)(C)C)c2)s1 (stereo not shown) [Example 353]
23 | ≥ 7.00 | ≥ 7.00 | CC(C)N1CC(n2cnc3cnc(C(=O)N[C@H](C)c4cnc(Nc5ccc(C(F)(F)F)cc5)s4)cc32)C1 [Example 183]
24 | ≥ 7.00 | 6.00 to 7.00 | CCn1cc2cc(C(=O)NC(C)c3cnc(Nc4ccc(C(F)(F)F)cc4)s3)ncc2n1 (stereo not shown) [Example 207]
25 | ≥ 7.00 | 5.00 to 6.00 | COCCn1c(C(=O)NC(C)c2cnc(Nc3ccc(C(F)(F)F)cc3)s2)cnc1C (stereo not shown) [Example 140]
26 | ≥ 7.00 | ≥ 7.00 | CCn1cnc2cnc(C(=O)NC(C)c3cnc(Nc4cnc(C(C)(C)C)nc4)s3)cc21 (stereo not shown) [Example 285]
27 | ≥ 7.00 | 6.00 to 7.00 | CCNCCn1cnc2cnc(C(=O)NC(C)c3cnc(Nc4ccc(C(F)(F)F)cc4)s3)cc21 (stereo not shown) [Example 34]

Row | pIC50 (V599E Raf) | pEC50 [1] | Compound
28 | ≥ 7.00 | 6.00 to 7.00 | Cc1c(C(=O)NC(C)c2cnc(Nc3ccc(C(F)(F)F)cc3)s2)cnn1C (stereo not shown) [Example 82]
29 | ≥ 7.00 | 6.00 to 7.00 | C[C@@H](NC(=O)c1cnn2ccccc12)c1cc(C(=O)Nc2ccc(Cl)c(C(F)(F)F)c2)on1 [Example 220]
30 | ≥ 7.00 | 5.00 to 6.00 | Cc1ncsc1C(=O)N[C@H](C)c1ncc(C(=O)Nc2cc(C(F)(F)F)c(Cl)cn2)s1 [Example 99]
31 | ≥ 7.00 | 5.00 to 6.00 | CC(NC(=O)c1cc2ncn(C)c2cn1)c1cnc(Nc2ccc(C(F)(F)F)cc2)s1 (stereo not shown) [Example 1]
32 | ≥ 7.00 | 5.00 to 6.00 | C[C@@H](NC(=O)c1cnc(CN2CCOCC2)n1C)c1ncc(C(=O)Nc2cc(C(F)(F)F)c(Cl)cn2)s1 [Example 156]
33 | ≥ 7.00 | 6.00 to 7.00 | CC(NC(=O)c1cc2c(cn1)ncn2CCO)c1cnc(Nc2ccc(C(F)(F)F)cc2)s1 (stereo not shown) [Example 25]
34 | ≥ 7.00 | ≥ 7.00 | C[C@@H](NC(=O)c1cc2c(cn1)ncn2C1CN(CCO)C1)c1cnc(Nc2ccc(C(F)(F)F)cc2)s1 [Example 348]
35 | ≥ 7.00 | 6.00 to 7.00 | CC(=O)N1CC(n2cnc3cnc(C(=O)N[C@H](C)c4cnc(Nc5ccc(C(F)(F)F)cc5)s4)cc32)C1 [Example 347]
36 | ≥ 7.00 | ≥ 7.00 | CC(NC(=O)c1cc2c(cn1)ncn2C)c1cnc(Nc2ccc(C(F)(F)F)cc2)s1 (stereo not shown) [Example 2]
37 | 6.00 to 7.00 | 5.00 to 6.00 | C[C@H](NC(=O)c1cc2c(cn1)ncn2C1CCC1)c1cnc(Nc2ccc(C(F)(F)F)cc2)cn1 [Example 187]
38 | ≥ 7.00 | ≥ 7.00 | CCN1CC(n2cnc3cnc(C(=O)N[C@H](C)c4cnc(Nc5ccc(C(F)(F)F)cc5)s4)cc32)C1 [Example 30]
39 | 6.00 to 7.00 | 6.00 to 7.00 | C[C@@H](NC(=O)c1cnn(C)c1CN1CCC(F)(F)C1)c1ncc(C(=O)Nc2cc(C(F)(F)F)c(Cl)cn2)s1 [Example 130]
40 | ≥ 7.00 | ≥ 7.00 | CC(NC(=O)c1cc2c(cn1)nc(N)n2C)c1cnc(Nc2ccc(C(F)(F)F)cc2)cn1 (stereo not shown) [Example 201]
41 | 6.00 to 7.00 | 5.00 to 6.00 | C[C@@H](NC(=O)c1cccc(Br)n1)c1ncc(C(=O)Nc2cc(C(F)(F)F)c(Cl)cn2)s1 [Example 91]
42 | ≥ 7.00 | 5.00 to 6.00 | C[C@@H](NC(=O)c1cccc(N)n1)c1ncc(C(=O)Nc2cc(C(F)(F)F)c(Cl)cn2)s1 [Example 92]
43 | 6.00 to 7.00 | 5.00 to 6.00 | CC(NC(=O)c1cc2c(cn1)ncn2C)c1cnc(Nc2cc(C(=O)O)cc(C(C)(C)C)c2)s1 (stereo not shown) [Example 352]
44 | ≥ 7.00 | 6.00 to 7.00 | C[C@@H](NC(=O)c1cc2c(cn1)ncn2C1CNC1)c1cnc(Nc2ccc(C(F)(F)F)cc2)s1 [Example 27]
45 | ≥ 7.00 | ≥ 7.00 | CC(NC(=O)c1cc2c(cn1)ncn2C)c1cnc(Nc2cccc(S(=O)(=O)C(F)(F)F)c2)cn1 (stereo not shown) [Example 243]
46 | ≥ 7.00 | 6.00 to 7.00 | CC(NC(=O)c1cc2c(cn1)ncn2C)c1cnc(Nc2cnc(C(F)(F)F)nc2)s1 (stereo not shown) [Example 261]
47 | 6.00 to 7.00 | ≥ 7.00 | C[C@@H](NC(=O)c1cnn2cc(-c3cccnc3)ccc12)c1cc(C(=O)Nc2cccc(OC(F)(F)F)c2)on1 [Example 332]
48 | ≥ 7.00 | ≥ 7.00 | CC(NC(=O)c1cc2c(cn1)ncn2C)c1ncc(C(=O)Nc2cc(C(C)(C)C)on2)s1 (stereo not shown) [Example 43]
49 | ≥ 7.00 | 6.00 to 7.00 | CC(NC(=O)c1ccc2nccnc2c1)c1cnc(Nc2ccc(C(F)(F)F)cc2)s1 (stereo not shown) [Example 73]
50 | ≥ 7.00 | 5.00 to 6.00 | Cc1n[nH]c(C)c1C(=O)N[C@H](C)c1ncc(C(=O)Nc2cc(C(F)(F)F)c(Cl)cn2)s1 [Example 111]
51 | ≥ 7.00 | 6.00 to 7.00 | CC(NC(=O)c1ccc2nc(N)sc2c1)c1cnc(Nc2ccc(C(F)(F)F)cc2)s1 (stereo not shown) [Example 75]
52 | ≥ 7.00 | 5.00 to 6.00 | Cc1nn(C)c(C)c1C(=O)N[C@H](C)c1ncc(C(=O)Nc2cc(C(F)(F)F)c(Cl)cn2)s1 [Example 110]
53 | ≥ 7.00 | ≥ 7.00 | C[C@@H](NC(=O)c1cc2c(cn1)ncn2[C@H]1CCN(C(=O)OC(C)(C)C)C1)c1cnc(Nc2ccc(C(F)(F)F)cc2)s1 [Example 29]
